In patent publication US10174002B2, “Pyridine derivatives as CFTR modulators” (NuBridge BioSciences, priority 2015, dated 2019):
Structures can show the parent of a compound that is named as a salt.

Target: T1, ΔF508 mutant CFTR (Homo sapiens, UniProt P13569, DEL508-508)
T1 construct: expressed in transfected cells; host or cells: Fischer rat thyroid (FRT) cells, co-expressing the halide-sensitive YFP-H148Q/I152L
Experiment: Fluorescence Assay of ΔF508 mutant CFTR activity (halide-sensitive YFP quenching by iodide influx in FRT cells)
Type: cell-based
Set-up: key: fold of mean activity with forskolin alone (I− quenching rate)
Conditions: test compounds 20 μM with forskolin 20 μM, 20 min; FRT cells expressing ΔF508-CFTR and YFP-H148Q/I152L, incubated at 27° C. 20-24 h; rate of fluorescence quenching by I−, normalized to mean activity with forskolin alone
Text: The ΔF508 mutant CFTR activities of the CFTR modulators are detected using the Fluorescence Assay developed by Pedemonte (Pedemonte N., et al., Antihypertensive 1,4-dihydropyridines as correctors of the cystic fibrosis transmembrane conductance regulator channel gating defect caused by cystic fibrosis mutations, Mol. Pharmacol., 2005, 68, 1736-1746).
Fischer rat thyroid (FRT) cells, stably transfected with ΔF508 were retransfected with the YFP-H148Q/I152L fluorescent protein. The cells were plated (100,000 cells/well) on black 96-well microplates with clear plastic bottom (Corning Life Sciences, Acton, Mass.).
The 96-well microplates containing FRT cells expressing F508-CFTR and the halide-sensitive YFP were incubated at 27° C. for 20 to 24 h to allow rescue of the mutant protein to the plasma membrane. After incubation, cells were washed with PBS (containing 137 mM NaCl, 2.7 mM KCl, 8.1 mM Na2HPO4, 1.5 mM KH2PO4, 1 mM CaCl2, and 0.5 mM MgCl2) and stimulated for 20 min with forskolin (20 μM) and test compounds (20 μM) in a final volume of 60 μl. Microplates were then transferred to a microplate reader for CFTR activity determination. Each assay consisted of a continuous 14-s fluorescence reading (5 points per second) with 2 s before and 12 s after injection of 165 μl of an iodide-containing solution (PBS with Cl^− replaced by I^−). Final iodide concentration in the wells was 100 mM. […] To determine I^− influx rate, the final 11 s of the data for each well were fitted with an exponential function to extrapolate initial slope. CFTR activity was determined by measuring the rate of fluorescence quenching induced by extracellular addition of I^−. Data are normalized to the mean activity measured in the presence of forskolin alone.

T1 sequence (P13569 with tags, fused parts or gaps DEL508-508): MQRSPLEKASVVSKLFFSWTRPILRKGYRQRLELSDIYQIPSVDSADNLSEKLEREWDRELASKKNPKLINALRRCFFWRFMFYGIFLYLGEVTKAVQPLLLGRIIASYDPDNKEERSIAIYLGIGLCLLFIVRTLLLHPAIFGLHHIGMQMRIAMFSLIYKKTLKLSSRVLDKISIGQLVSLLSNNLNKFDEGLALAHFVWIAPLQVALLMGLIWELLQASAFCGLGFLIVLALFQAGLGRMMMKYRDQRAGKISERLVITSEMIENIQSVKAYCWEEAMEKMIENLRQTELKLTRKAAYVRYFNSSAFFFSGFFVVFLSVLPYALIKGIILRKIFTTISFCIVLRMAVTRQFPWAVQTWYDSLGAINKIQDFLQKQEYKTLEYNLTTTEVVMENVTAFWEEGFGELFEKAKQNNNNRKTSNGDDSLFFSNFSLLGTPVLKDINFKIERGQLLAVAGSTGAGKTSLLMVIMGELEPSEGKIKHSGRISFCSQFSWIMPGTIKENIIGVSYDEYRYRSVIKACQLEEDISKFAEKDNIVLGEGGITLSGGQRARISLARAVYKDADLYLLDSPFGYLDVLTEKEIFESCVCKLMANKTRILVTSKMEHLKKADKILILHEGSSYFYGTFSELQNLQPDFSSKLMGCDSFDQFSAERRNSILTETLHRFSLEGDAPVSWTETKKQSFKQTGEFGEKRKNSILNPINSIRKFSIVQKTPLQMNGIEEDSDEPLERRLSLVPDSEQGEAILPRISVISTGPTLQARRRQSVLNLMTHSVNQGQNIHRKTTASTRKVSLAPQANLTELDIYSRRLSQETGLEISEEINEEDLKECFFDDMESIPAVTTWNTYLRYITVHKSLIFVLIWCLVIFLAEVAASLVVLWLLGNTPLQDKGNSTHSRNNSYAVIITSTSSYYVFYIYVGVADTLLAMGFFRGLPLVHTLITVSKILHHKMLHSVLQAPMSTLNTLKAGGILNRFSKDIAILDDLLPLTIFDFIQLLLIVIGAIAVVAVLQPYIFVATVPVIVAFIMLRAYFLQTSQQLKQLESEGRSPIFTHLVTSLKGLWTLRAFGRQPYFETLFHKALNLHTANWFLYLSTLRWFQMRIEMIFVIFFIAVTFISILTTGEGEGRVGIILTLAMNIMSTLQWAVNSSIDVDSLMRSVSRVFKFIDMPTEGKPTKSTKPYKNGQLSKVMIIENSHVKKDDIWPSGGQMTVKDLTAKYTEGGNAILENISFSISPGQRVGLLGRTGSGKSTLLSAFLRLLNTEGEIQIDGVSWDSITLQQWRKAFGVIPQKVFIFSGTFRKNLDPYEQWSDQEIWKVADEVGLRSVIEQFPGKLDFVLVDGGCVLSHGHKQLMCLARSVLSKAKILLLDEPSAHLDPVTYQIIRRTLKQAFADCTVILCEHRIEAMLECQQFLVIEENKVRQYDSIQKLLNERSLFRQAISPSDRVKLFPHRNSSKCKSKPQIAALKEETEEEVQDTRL

CFTR Activity	Compound
1.4	Cl.O=C(Nc1cnccc1OCC1CCNCC1)c1ccc(F)c(-c2c(F)cccc2F)n1 [Example 1, 6-(2,6-difluorophenyl)-5-fluoro-N-(4-(piperidin-4-ylmethoxy)pyridin-3-yl)picolinamide hydrochloride]
1.6	Cl.O=C(Nc1cnccc1OC1CCNCC1)c1ccc(F)c(-c2c(F)cccc2F)n1 [Example 3, 6-(2,6-difluorophenyl)-5-fluoro-N-(4-(piperidin-4-yloxy)pyridin-3-yl)picolinamide hydrochloride]
0.9	Cl.O=C(Nc1cnccc1OC1CCNC1)c1ccc(F)c(-c2c(F)cccc2F)n1 (stereo not shown) [Example 4, 6-(2,6-difluorophenyl)-5-fluoro-N-(4-(pyrrolidin-3-yloxy)pyridin-3-yl)picolinamide hydrochloride]
0.5	Cl.O=C(Nc1cnccc1OC1CCCNC1)c1ccc(F)c(-c2c(F)cccc2F)n1 (stereo not shown) [Example 5, 6-(2,6-difluorophenyl)-5-fluoro-N-(4-(piperidin-3-yloxy)pyridin-3-yl)picolinamide hydrochloride]
1.9	Cl.O=C(Nc1cnccc1OC1CCCNCC1)c1ccc(F)c(-c2c(F)cccc2F)n1 (stereo not shown) [Example 6, N-(4-(azepan-4-yloxy)pyridin-3-yl)-6-(2,6-difluorophenyl)-5-fluoropicolinamide hydrochloride]
0.8	Cl.O=C(Nc1cnccc1OCC1CCCNC1)c1ccc(F)c(-c2c(F)cccc2F)n1 (stereo not shown) [Example 7, 6-(2,6-difluorophenyl)-5-fluoro-N-(4-(piperidin-3-ylmethoxy)pyridin-3-yl)picolinamide hydrochloride]
0.5	Cl.O=C(Nc1cnccc1OCC1CCNC1)c1ccc(F)c(-c2c(F)cccc2F)n1 (stereo not shown) [Example 8, 6-(2,6-difluorophenyl)-5-fluoro-N-(4-(pyrrolidin-3-ylmethoxy)pyridin-3-yl)picolinamide hydrochloride]
2.2	Cl.NC1CCC(Oc2ccncc2NC(=O)c2ccc(F)c(-c3c(F)cccc3F)n2)CC1 (stereo not shown) [Example 10, N-(4-(((1r,4r)-4-aminocyclohexyl)oxy)pyridin-3-yl)-6-(2,6-difluorophenyl)-5-fluoropicolinamide hydrochloride]
3.1	Cl.NC1CCCC(Oc2ccncc2NC(=O)c2ccc(F)c(-c3c(F)cccc3F)n2)C1 (stereo not shown) [Example 11, N-(4-((3-aminocyclohexyl)oxy)pyridin-3-yl)-6-(2,6-difluorophenyl)-5-fluoropicolinamide hydrochloride]
0.7	Cl.NCCCOc1ccncc1NC(=O)c1ccc(F)c(-c2c(F)cccc2F)n1 [Example 12, N-(4-(3-aminopropoxy)pyridin-3-yl)-6-(2,6-difluorophenyl)-5-fluoropicolinamide hydrochloride]
0.6	CNCCCOc1ccncc1NC(=O)c1ccc(F)c(-c2c(F)cccc2F)n1.Cl [Example 13, 6-(2,6-difluorophenyl)-5-fluoro-N-(4-(3-(methylamino)propoxy)pyridin-3-yl)picolinamide hydrochloride]
0.2	CN(C)CCCOc1ccncc1NC(=O)c1ccc(F)c(-c2c(F)cccc2F)n1.Cl [Example 14, 6-(2,6-difluorophenyl)-N-(4-(3-(dimethylamino)propoxy)pyridin-3-yl)-5-fluoropicolinamide hydrochloride]
0.2	O=C(Nc1cnccc1OCCCO)c1ccc(F)c(-c2c(F)cccc2F)n1 [Example 17, 6-(2,6-difluorophenyl)-5-fluoro-N-(4-(3-hydroxypropoxy)pyridin-3-yl)picolinamide]
0.1	CC(C)(O)CCCOc1ccncc1NC(=O)c1ccc(F)c(-c2c(F)cccc2F)n1 [Example 20, 6-(2,6-difluorophenyl)-5-fluoro-N-(4-((4-hydroxy-4-methylpentyl)oxy)pyridin-3-yl)picolinamide]
0.05	O=C(Nc1cnccc1OCC1CCOCC1)c1ccc(F)c(-c2c(F)cccc2F)n1 [Example 22, 6-(2,6-difluorophenyl)-5-fluoro-N-(4-((tetrahydro-2H-pyran-4-yl)methoxy)pyridin-3-yl)picolinamide]
2.5	Cl.Nc1cc(F)c(-c2c(F)cccc2F)nc1C(=O)Nc1cnccc1OCC1CCNCC1 [Example 23, 3-amino-6-(2,6-difluorophenyl)-5-fluoro-N-(4-(piperidin-4-ylmethoxy)pyridin-3-yl)picolinamide hydrochloride]
2.1	Cl.Nc1cc(F)c(-c2c(F)cccc2F)nc1C(=O)Nc1cnccc1OC1CCNC1 (stereo not shown) [Example 24, 3-amino-6-(2,6-difluorophenyl)-5-fluoro-N-(4-(pyrrolidin-3-yloxy)pyridin-3-yl)picolinamide hydrochloride]
3.2	Cl.Nc1cc(F)c(-c2c(F)cccc2F)nc1C(=O)Nc1cnccc1OC1CCNCC1 [Example 25, 3-amino-6-(2,6-difluorophenyl)-5-fluoro-N-(4-(piperidin-4-yloxy)pyridin-3-yl)picolinamide hydrochloride]
4.3	Cl.Nc1cc(F)c(-c2c(F)cccc2F)nc1C(=O)Nc1cnccc1OC1CCCNCC1 (stereo not shown) [Example 26, 3-amino-N-(4-(azepan-4-yloxy)pyridin-3-yl)-6-(2,6-difluorophenyl)-5-fluoropicolinamide hydrochloride]
4.5	Cl.Nc1cc(F)c(-c2c(F)cccc2F)nc1C(=O)Nc1cnccc1O[C@H]1CC[C@H](N)CC1 [Example 27, 3-amino-N-(4-(((1r,4r)-4-aminocyclohexyl)oxy)pyridin-3-yl)-6-(2,6-difluorophenyl)-5-fluoropicolinamide hydrochloride]
2.2	Cl.Nc1cc(F)c(-c2c(F)cccc2F)nc1C(=O)Nc1cnccc1OCC1CCNC1 (stereo not shown) [Example 28, 3-amino-6-(2,6-difluorophenyl)-5-fluoro-N-(4-(pyrrolidin-3-ylmethoxy)pyridin-3-yl)picolinamide hydrochloride]
1.8	NCC(CCl)Oc1ccncc1NC(=O)c1ccc(F)c(-c2c(F)cccc2F)n1 (stereo not shown) [Example 29, N-(4-((1-amino-3-chloropropan-2-yl)oxy)pyridin-5-yl)-6-(2,6-difluorophenyl)-5-fluoropicolinamide hydrochloride]
1.6	Cl.NCC(CCl)COc1ccncc1NC(=O)c1ccc(F)c(-c2c(F)cccc2F)n1 (stereo not shown) [Example 30, N-(4-(3-amino-2-(chloromethyl)propoxy)pyridin-5-yl)-6-(2,6-difluorophenyl)-5-fluoropicolinamide hydrochloride]
1.1	Cl.Nc1cc(F)c(-c2c(F)cccc2F)nc1C(=O)Nc1cnccc1OC1CNC1 [Example 31, 3-amino-N-(4-(azetidin-3-yloxy)pyridin-3-yl)-6-(2,6-difluorophenyl)-5-fluoropicolinamide hydrochloride]
1.2	Cl.Nc1cc(F)c(-c2c(F)cccc2F)nc1C(=O)Nc1cnccc1OCC1CNC1 [Example 32, 3-amino-N-(4-(azetidin-3-ylmethoxy)pyridin-3-yl)-6-(2,6-difluorophenyl)-5-fluoropicolinamide hydrochloride]
2.1	Cl.NCC(CCl)Oc1ccncc1NC(=O)c1nc(-c2c(F)cccc2F)c(F)cc1N (stereo not shown) [Example 33, 3-amino-N-(4-((1-amino-3-chloropropan-2-yl)oxy)pyridin-3-yl)-6-(2,6-difluorophenyl)-5-fluoropicolinamide hydrochloride]

Compound	CFTR Activity
Cl.NCCCCOc1ccncc1NC(=O)c1ccc(F)c(-c2c(F)cccc2F)n1 [Example 15, N-(4-(4-aminobutoxy)pyridin-3-yl)-6-(2,6-difluorophenyl)-5-fluoropicolinamide hydrochloride]	0.7
CNCCCCOc1ccncc1NC(=O)c1ccc(F)c(-c2c(F)cccc2F)n1.Cl [Example 16, 6-(2,6-difluorophenyl)-5-fluoro-N-(4-(4-(methylamino)butoxy)pyridin-3-yl)picolinamide hydrochloride]	0.6
CC(O)CCOc1ccncc1NC(=O)c1ccc(F)c(-c2c(F)cccc2F)n1 (stereo not shown) [Example 18, 6-(2,6-difluorophenyl)-5-fluoro-N-(4-(3-hydroxybutoxy)pyridin-3-yl)picolinamide]	0.1
O=C(Nc1cnccc1OCCCCO)c1ccc(F)c(-c2c(F)cccc2F)n1 [Example 19, 6-(2,6-difluorophenyl)-5-fluoro-N-(4-(4-hydroxybutoxy)pyridin-3-yl)picolinamide]	0.3
O=C(Nc1cnccc1OCCC(O)CO)c1ccc(F)c(-c2c(F)cccc2F)n1 (stereo not shown) [Example 21, 6-(2,6-difluorophenyl)-N-(4-(3,4-dihydroxybutoxy)pyridin-3-yl)-5-fluoropicolinamide]	0.1
